# Tested on: juvenile hormone receptor of Daphnia magna (DampaMET)
# Assay: Yeast reporter (β-galactosidase) assay, transformants with DampaMET and DampaSRC
# Assay type: cell-based
# Method: Subsequently, a reporter plasmid prepared by inserting the nucleotide sequence shown in SEQ ID NO: 2 into a yeast comprising the DampaMET plasmid and the DampaSRC plasmid introduced thereinto by the lithium acetate method. Thus, Yeast 1 of Invention was obtained. In the same manner, Yeasts 2 to 38 of Invention each comprising the response element according to the present invention and Control yeasts 1 to 9 shown in Table 3 were prepared.
# With the use of the Yeast 1 of Invention, reporter activity to methyl farnesoate as a juvenile hormone substance was measured. At the outset, the Yeast 1 of Invention was subjected to pre-culture at 30° C. for 18 hours using the pre-culture medium shown in Table 1 until the turbidity (O.D. 595) of the pre-culture medium reached approximately 0.1. The solution of the pre-cultured cells (10 μl) and 1 μl of the solution of methyl farnesoate diluted to various concentrations with dimethyl sulfoxide (DMSO) were mixed with 90 μl of the main culture solution shown in Table 4 in a 96-well plate, and the mixture was subjected to static culture at 30° C. for 18 hours to prepare a reaction solution. The resultant was designated as a test group.
# A reaction solution prepared with the addition of 1 μl of DMSO instead of a diluted methyl farnesoate solution was designated as a control group. Fractions of 10 μl each were collected from the reaction solutions and dispensed into each well of another 96-well plate. Thereafter, 100 μl of an assay reagent comprising a lytic solution (Z buffer: 60 mM Na2HPO4, 40 mM NaH2PO4, 1 mM MgCl2, 10 mM KCl, 2 mM dithiothreitol, 0.20% N-lauroylsarcosine sodium salt) mixed with 1 mg/ml ONPG (orthonitrophenylgalactopyranoside) was dispensed into each well, and the reaction was allowed to proceed at 37° C. for 30 minutes. Thereafter, the absorbance (O.D. 405) and the turbidity (O.D. 595) of the reaction solutions were assayed at the wavelength of 405 nm using a microplate reader (tradename: iMark microplate reader, Bio-Rad Laboratories). The increase of induction was calculated in accordance with the following formula.
# The increase of induction is described in Ito-Harashima S et al., FEBS Open Bio., 7 (7): pp. 995-1008, 2017. When the increase of induction is positive, the transformant is determined to have reporter activity to the substance tested. The test was performed once or repeated 3 times, 5 times, or 15 times, and the average increase of induction was calculated. The control yeast 1 was treated in the same manner and reporter activity was compared.
# In the same manner as in Test Example 1, the Yeasts 2, 3, 4, 5, 6, 7, 9, 10, 11, 12, 13, 14, 15, 16, 17, 18, 19, and 20 of Invention were subjected to assays of reporter activity to methyl farnesoate. The test was performed in accordance with Test Example 1, and reporter activity of the yeasts indicated above was compared with that of the control yeasts 2, 3, and 4.
# With the use of the control yeast 7 comprising a different nucleotide sequence of the C-box (CACGCG) in the response element, the control yeast 8 comprising a different nucleotide sequence of the E-box (CACGTG), and the control yeast 9 comprising different nucleotide sequences of the C-box and the E-box from the relevant nucleotide sequences of the Yeast 4 of Invention, the influence of a core sequence on reporter activity to methyl farnesoate was evaluated. The test was performed in accordance with Test Example 1.
# With the use of the Yeast 4 and the Yeast 8 of the present Invention, reporter activity to sex hormones; i.e., 17β-estradiol and testosterone, insect juvenile hormones; i.e., juvenile hormone III, and chemical substances suspected of having endocrine disrupting actions, such as 4-nonyl phenol, bisphenol A, 1,1,1-trichloro-2,2-bis(4-chlorophenyl)ethane (DDT), 2,2-bis(4-chlorophenyl)-1,1-dichloroethylene (DDE), and dieldrin, was assayed. The test was performed in accordance with Test Example 1. All the test substances were treated at 10 μM. […]
structure (smiles),measurement,setting,value
COC(=O)/C=C(\C)CC/C=C(\C)CCC=C(C)C [methyl farnesoate],increase of induction,"Control yeast 1 (cacgcggcggcacgtg x1), 100 pM",0.01
same,increase of induction,"Control yeast 1 (cacgcggcggcacgtg x1), 1 nM",0.00
same,increase of induction,"Control yeast 2 (cacgcggcggcacgtg x2), 10 nM",−0.29
same,increase of induction,"Control yeast 2 (cacgcggcggcacgtg x2), 100 nM",−0.27
same,increase of induction,"Control yeast 2 (cacgcggcggcacgtg x2), 1 μM",−0.34
same,increase of induction,"Control yeast 2 (cacgcggcggcacgtg x2), 10 μM",−0.21
same,increase of induction,"Control yeast 2 (cacgcggcggcacgtg x2), 100 μM",−0.14
same,increase of induction,"Control yeast 3 (cacgcggcggcacgtg x3), 10 nM",−0.12
same,increase of induction,"Control yeast 3 (cacgcggcggcacgtg x3), 100 nM",−0.21
same,increase of induction,"Control yeast 3 (cacgcggcggcacgtg x3), 1 μM",−0.27
same,increase of induction,"Control yeast 3 (cacgcggcggcacgtg x3), 10 μM",−0.17
same,increase of induction,"Control yeast 3 (cacgcggcggcacgtg x3), 100 μM",−0.17
same,increase of induction,"Control yeast 4 (cacgcggcggcacgtg x4), 10 nM",−0.84
same,increase of induction,"Control yeast 4 (cacgcggcggcacgtg x4), 100 nM",−1.49
same,increase of induction,"Control yeast 4 (cacgcggcggcacgtg x4), 1 μM",−1.82
same,increase of induction,"Control yeast 4 (cacgcggcggcacgtg x4), 10 μM",−1.05
same,increase of induction,"Control yeast 4 (cacgcggcggcacgtg x4), 100 μM",−2.06
same,increase of induction,"Control yeast 7 (SEQ ID NO: 25 x4, different C-box), 100 nM",−0.42
same,increase of induction,"Control yeast 7 (SEQ ID NO: 25 x4, different C-box), 10 μM",−0.12
same,increase of induction,"Control yeast 8 (SEQ ID NO: 28 x4, different E-box), 100 nM",0.00
same,increase of induction,"Control yeast 8 (SEQ ID NO: 28 x4, different E-box), 10 μM",−0.02
same,increase of induction,"Control yeast 9 (SEQ ID NO: 31 x4, different C-box and E-box), 100 nM",−0.42
same,increase of induction,"Control yeast 9 (SEQ ID NO: 31 x4, different C-box and E-box), 10 μM",−0.12
same,increase of induction,"Yeast 1 of Invention (SEQ ID NO: 2 x1), 100 pM",0.10
same,increase of induction,"Yeast 1 of Invention (SEQ ID NO: 2 x1), 1 nM",0.08
same,increase of induction,"Yeast 2 of Invention (SEQ ID NO: 2 x2), 10 nM",0.54
same,increase of induction,"Yeast 2 of Invention (SEQ ID NO: 2 x2), 100 nM",1.26
same,increase of induction,"Yeast 2 of Invention (SEQ ID NO: 2 x2), 1 μM",1.45
same,increase of induction,"Yeast 2 of Invention (SEQ ID NO: 2 x2), 10 μM",1.64
same,increase of induction,"Yeast 2 of Invention (SEQ ID NO: 2 x2), 100 μM",1.57
same,increase of induction,"Yeast 3 of Invention (SEQ ID NO: 2 x3), 10 nM",2.05
same,increase of induction,"Yeast 3 of Invention (SEQ ID NO: 2 x3), 100 nM",4.35
same,increase of induction,"Yeast 3 of Invention (SEQ ID NO: 2 x3), 1 μM",4.45
same,increase of induction,"Yeast 3 of Invention (SEQ ID NO: 2 x3), 10 μM",4.07
same,increase of induction,"Yeast 3 of Invention (SEQ ID NO: 2 x3), 100 μM",4.29
same,increase of induction,"Yeast 4 of Invention (SEQ ID NO: 2 x4), 10 nM, Test Example 2",5.13
same,increase of induction,"Yeast 4 of Invention (SEQ ID NO: 2 x4), 100 nM, Test Example 2",7.55
same,increase of induction,"Yeast 4 of Invention (SEQ ID NO: 2 x4), 100 nM, Test Example 3",0.42
same,increase of induction,"Yeast 4 of Invention (SEQ ID NO: 2 x4), 1 μM, Test Example 2",7.12
same,increase of induction,"Yeast 4 of Invention (SEQ ID NO: 2 x4), 10 μM, Test Example 2",7.44
same,increase of induction,"Yeast 4 of Invention (SEQ ID NO: 2 x4), 10 μM, Test Example 3",0.51
same,increase of induction,"Yeast 4 of Invention (SEQ ID NO: 2 x4), 100 μM, Test Example 2",7.47
same,increase of induction,"Yeast 5 of Invention (SEQ ID NO: 2 x5), 10 nM",1.33
same,increase of induction,"Yeast 5 of Invention (SEQ ID NO: 2 x5), 100 nM",3.29
same,increase of induction,"Yeast 5 of Invention (SEQ ID NO: 2 x5), 1 μM",3.72
same,increase of induction,"Yeast 5 of Invention (SEQ ID NO: 2 x5), 10 μM",3.76
same,increase of induction,"Yeast 5 of Invention (SEQ ID NO: 2 x5), 100 μM",4.05
same,increase of induction,"Yeast 6 of Invention (SEQ ID NO: 5 x3), 10 nM",0.33
same,increase of induction,"Yeast 6 of Invention (SEQ ID NO: 5 x3), 100 nM",1.19
same,increase of induction,"Yeast 6 of Invention (SEQ ID NO: 5 x3), 1 μM",1.18
same,increase of induction,"Yeast 6 of Invention (SEQ ID NO: 5 x3), 10 μM",1.33
same,increase of induction,"Yeast 6 of Invention (SEQ ID NO: 5 x3), 100 μM",1.33
same,increase of induction,"Yeast 7 of Invention (SEQ ID NO: 8 x3), 10 nM",0.06
same,increase of induction,"Yeast 7 of Invention (SEQ ID NO: 8 x3), 100 nM",0.26
same,increase of induction,"Yeast 7 of Invention (SEQ ID NO: 8 x3), 1 μM",0.32
same,increase of induction,"Yeast 7 of Invention (SEQ ID NO: 8 x3), 10 μM",0.36
same,increase of induction,"Yeast 7 of Invention (SEQ ID NO: 8 x3), 100 μM",0.34
same,increase of induction,"Yeast 9 of Invention (SEQ ID NO: 34 x1), 100 nM",0.19
same,increase of induction,"Yeast 9 of Invention (SEQ ID NO: 34 x1), 10 μM",0.16
same,increase of induction,"Yeast 10 of Invention (SEQ ID NO: 34 x2), 100 nM",0.08
same,increase of induction,"Yeast 10 of Invention (SEQ ID NO: 34 x2), 10 μM",0.20
same,increase of induction,"Yeast 11 of Invention (SEQ ID NO: 34 x3), 100 nM",0.22
same,increase of induction,"Yeast 11 of Invention (SEQ ID NO: 34 x3), 10 μM",0.24
same,increase of induction,"Yeast 12 of Invention (SEQ ID NO: 34 x4), 100 nM",1.43
same,increase of induction,"Yeast 12 of Invention (SEQ ID NO: 34 x4), 10 μM",2.55
same,increase of induction,"Yeast 13 of Invention (SEQ ID NO: 34 x5), 10 μM",0.09
same,increase of induction,"Yeast 14 of Invention (SEQ ID NO: 8 x1), 10 μM",0.09
same,increase of induction,"Yeast 15 of Invention (SEQ ID NO: 8 x2), 100 nM",0.09
same,increase of induction,"Yeast 15 of Invention (SEQ ID NO: 8 x2), 10 μM",0.16
same,increase of induction,"Yeast 16 of Invention (SEQ ID NO: 8 x4), 100 nM",0.65
same,increase of induction,"Yeast 16 of Invention (SEQ ID NO: 8 x4), 10 μM",1.32
same,increase of induction,"Yeast 17 of Invention (SEQ ID NO: 37 x1), 100 nM",0.06
same,increase of induction,"Yeast 17 of Invention (SEQ ID NO: 37 x1), 10 μM",0.09
same,increase of induction,"Yeast 18 of Invention (SEQ ID NO: 37 x2), 100 nM",0.10
same,increase of induction,"Yeast 19 of Invention (SEQ ID NO: 37 x3), 100 nM",1.53
same,increase of induction,"Yeast 19 of Invention (SEQ ID NO: 37 x3), 10 μM",2.27
same,increase of induction,"Yeast 20 of Invention (SEQ ID NO: 37 x4), 100 nM",1.55
same,increase of induction,"Yeast 20 of Invention (SEQ ID NO: 37 x4), 10 μM",1.85
same,increase of induction,"Yeast 25 of Invention (SEQ ID NO: 43 x1), 100 nM",0.06
same,increase of induction,"Yeast 25 of Invention (SEQ ID NO: 43 x1), 10 μM",0.15
same,increase of induction,"Yeast 26 of Invention (SEQ ID NO: 43 x2), 100 nM",0.35
same,increase of induction,"Yeast 26 of Invention (SEQ ID NO: 43 x2), 10 μM",0.38
same,increase of induction,"Yeast 27 of Invention (SEQ ID NO: 43 x3), 100 nM",0.03
same,increase of induction,"Yeast 27 of Invention (SEQ ID NO: 43 x3), 10 μM",0.64
same,increase of induction,"Yeast 28 of Invention (SEQ ID NO: 43 x4), 100 nM",1.87
same,increase of induction,"Yeast 28 of Invention (SEQ ID NO: 43 x4), 10 μM",2.51
same,increase of induction,"Yeast 29 of Invention (SEQ ID NO: 46 x1), 100 nM",0.07
same,increase of induction,"Yeast 29 of Invention (SEQ ID NO: 46 x1), 10 μM",0.07
same,increase of induction,"Yeast 30 of Invention (SEQ ID NO: 46 x2), 100 nM",0.16
same,increase of induction,"Yeast 30 of Invention (SEQ ID NO: 46 x2), 10 μM",0.07
same,increase of induction,"Yeast 31 of Invention (SEQ ID NO: 46 x3), 100 nM",0.09
same,increase of induction,"Yeast 31 of Invention (SEQ ID NO: 46 x3), 10 μM",0.23
same,increase of induction,"Yeast 32 of Invention (SEQ ID NO: 49 x1), 100 nM",0.11
same,increase of induction,"Yeast 32 of Invention (SEQ ID NO: 49 x1), 10 μM",0.31
same,increase of induction,"Yeast 33 of Invention (SEQ ID NO: 49 x2), 100 nM",0.42
same,increase of induction,"Yeast 33 of Invention (SEQ ID NO: 49 x2), 10 μM",0.22
same,increase of induction,"Yeast 34 of Invention (SEQ ID NO: 49 x3), 100 nM",0.66
same,increase of induction,"Yeast 34 of Invention (SEQ ID NO: 49 x3), 10 μM",2.15
same,increase of induction,"Yeast 35 of Invention (SEQ ID NO: 49 x4), 100 nM",1.44
same,increase of induction,"Yeast 35 of Invention (SEQ ID NO: 49 x4), 10 μM",1.05

# Reference: US20230250436A1, “NUCLEIC ACID THAT INTERACTS WITH A RECEPTOR FOR ENDOCRINE DISRUPTING CHEMICALS AND USE THEREOF” (KUMIAI CHEMICAL INDUSTRY CO., LTD., priority 2020, published 2023)
